Values of other authors, collected in patent US20260144756A1 (US NANO FOOD AND DRUG INC, priority 2022, published 2026).

Details: in vivo

## CC(C)(Oc1ccc(C(=O)c2ccc(Cl)cc2)cc1)C(=O)O [fenofibric acid]
  elimination / terminal half-life: about 20 hours
